Measured values published in patent US20240374631A1, “A COMPOSITION FOR IMPROVING GUT MICROBIOTA, BEHAVIOURAL PATTERN, ALPHA-SYNUCLEIN LEVELS, SLEEP PATTERN AND/OR SERUM MELATONIN” (GN Corporation Co Ltd, priority 2021, published 2024).

System: gut microbiota
Test: Gut microbiome analysis (16S rRNA sequencing of fecal samples) in STAM model of NASH
Assay type: in vivo, C57BL/6J mice
Settings: post-intervention
From the text: The study is reported in accordance with Animal Research: Reporting of In Vivo Experiments (ARRIVE) guidelines. C57BL/6J mice were obtained from Japan SLC, Inc. (Japan). All animals used in this study were cared for under the following guidelines: Act on Welfare and Management of Animals (Ministry of the Environment, Japan, Act No. 105 of Oct. 1, 1973), standards relating to the care and management of laboratory animals and relief of pain (Notice No. 88 of the Ministry of the Environment, Japan, Apr. 28, 2006) and the guidelines for proper conduct of animal experiments (Science Council of Japan, Jun. 1, 2006). Protocol approvals were obtained from SMC Laboratories, Japan's IACUC (Study reference no: […] Mice were maintained in a specific pathogen-free (SPF) facility under controlled conditions of temperature (23±3° C.), humidity (50±20%), lighting (12-hour artificial light and dark cycles; light from 8:00 to 20:00) and air exchange. The STAM model of NASH was induced as previously described [D10]. Mice were given a single subcutaneous injection of 200 μg streptozotocin (STZ, Sigma-Aldrich, USA) solution 2 days after birth and fed with a high-fat diet (HFD, 57 kcal % fat, Cat #HFD32, CLEA Japan, Inc., Japan) from 4-9 weeks of age. All mice develop liver steatosis and diabetes and at […] mice had established steatohepatitis, histologically. Studygroups: There were five study groups, described below. Eight mice were included in each study group. Eight NASH mice were orally administered vehicle supplemented with AFO-202 Beta Glucan at a dose of 1 mg/kg in a volume of 5 mL/kg once daily from 6 to 9 weeks of age. Eight NASH mice were orally administered vehicle supplemented with Telmisartan at a dose of 10 mg/kg once daily from 6 to 9 weeks of age. Frequency: Fecal samples were collected at the 6 weeks of age (before administration) and 9 weeks of age (before sacrifice). Procedure: At 6 weeks of age, fecal samples were collected from each mouse by clean catch method. […] A sterile petri dish was placed on the bench. Gently massage the abdomen, position the bottom of mouse over a fresh petri dish, and collect 1-2 fecal pellets. At sacrifice, fecal samples were aseptically collected from cecum. The tubes with feces were placed on ice immediately. These tubes were snap frozen in liquid nitrogen and stored at -80° C. for shipping. In this analysis, the 16S rRNA sequence data acquired by the next-generation sequencer from the fecal […] was used to perform community analysis using the QIIME2 program for microbial community analysis. The raw read data in FASTQ format output from the next-generation sequencer was trimmed to remove adapter sequences and low QV regions that may be included in the data. Cutadapt was used to remove adapter sequences from DNA sequencing reads. Trimmomatic was used as read trimming tool for Illumina NGS data. The adapter sequence was trimmed using the adapter trimming program “cutadapt” if the Trimming of the region at the end of the read sequence overlapped the corresponding sequence by at least one base (mismatch tolerance: 20%). When reads containing N were present in at least one of Read1 and Read2, both Read1 and Read2 were removed. Trimming of low QV regions was performed on the read data after processing using the QV trimming program “Trimmomatic” under the following conditions. The window of 20 bases is slid from the 5' side, and the area where the average QV is less than 20 is trimmed. After trimming, only the reads with more than 50 bases remaining in both Read1 and Read2 were taken as output. The microbial community analysis based on 16S rRNA sequence was performed on the sequence data trimmed in the previous section using the microbial community analysis program “QIIME2”. The annotation program “sklearn” included in QIIME2 is used to annotate the ASV (OTU) sequences. […]

With CCCc1nc2c(C)cc(-c3nc4ccccc4n3C)cc2n1Cc1ccc(-c2ccccc2C(=O)O)cc1 [Telmisartan] the “Abundance: Ruminococcaceae, Oscillospira, —” value (“Abundance … Oscillospira, —” for short) (line r190) was 135, the “Abundance … Oscillospira, —” value (line r191) was 53 and the “Abundance: Lachnospiraceae, [Ruminococcus], gnavus” value (line r192) was 87. For the same molecule, the “Abundance … Oscillospira, —” value (line r193) was 42, the “Abundance: Lactobacillaceae, Lactobaccilus, reuteri” value (line r194) was 0 and the “Abundance: Coriobacteriaceae, Adlercreutzia, —” value (line r195) was 0. For the same molecule, the “Abundance: Lachnospiraceae, —, —” value (line r196) was 0, the “Abundance: S24-7, —, —” value (line r197) was 49 and the “Abundance: Turicibacteraceae, Turicibacter, —” value (line r198) was 0. For the same molecule, the “Abundance: S24-7, —, —” value (line r199) was 41, the “Abundance: Rikenellaceae, —, —” value (line r200) was 86 and the “Abundance: Enterobacteriaceae, Other, Other” value (line r201) was 0. For the same molecule, the “Abundance: Rikenellaceae, Other, Other” value (line r202) was 53, the “Abundance: Lactobacillaceae, Lactobaccilus, Other” value (line r204) was 0 and the “Abundance: —, —, —” value (line r205) was 0. The “Abundance: S24-7, —, —” value (line r206) was 45, the “Abundance: S24-7, —, —” value (line r207) was 109 and the “Abundance: —, —, —” value (line r208) was 19. For the same molecule, the “Abundance: Enterobacteriaceae, Klebsiella, Other” value (line r209) was 0, the “Abundance: —, —, —” value (line r210) was 3 and the “Abundance: Lachnospiraceae, Other, Other” value (line r211) was 137. The “Abundance … Oscillospira, —” value (line r212) was 0, the “Abundance … Oscillospira, —” value (line r213) was 65 and the “Abundance: Bacteroidaceae, Bacteroides, acidifaciens” value (line r214) was 35. The “Abundance: Erysipelotrichaceae, —, —” value (line r215) was 0, the “Abundance: Lachnospiraceae, Dorea, —” value (line r216) was 74 and the “Abundance: Enterobacteriaceae, Enterobacter, Other” value (line r217) was 41. The “Abundance … Oscillospira, —” value (line r218) was 45, the “Abundance: Ruminococcaceae, Other, Other” value (line r219) was 12 and the “Abundance … Oscillospira, —” value (line r220) was 184. For the same molecule, the “Abundance: Rikenellaceae, —, —” value (line r221) was 43, the “Abundance: —, —, —” value (line r222) was 79 and the “Abundance: Lachnospiraceae, Other, Other” value (line r223) was 273. For the same molecule, the “Abundance: Other, Other, Other” value (line r224) was 87, the “Abundance … Oscillospira, —” value (line r225) was 72 and the “Abundance: S24-7, —, —” value (line r226) was 85. For the same molecule, the “Abundance: Lachnospiraceae, —, —” value (line r227) was 0, the “Abundance: Streptococcaceae, Staphylococcus, —” value (line r228) was 27 and the “Abundance: —, —, —” value (line r229) was 0. The “Abundance: —, —, —” value (line r230) was 0, the “Abundance: —, —, —” value (line r231) was 101 and the “Abundance: Other, Other, Other” value (line r232) was 71. For the same molecule, the “Abundance: Aerococcaceae, Aerococcus, —” value (line r233) was 187, the “Abundance: Ruminococcaceae, —, —” value (line r234) was 0 and the “Abundance: —, —, —” value (line r235) was 108. For the same molecule, the “Abundance … Oscillospira, —” value (line r237) was 26, the “Abundance: —, —, —” value (line r238) was 51 and the “Abundance: Ruminococcaceae, Ruminococcus, —” value (shortened to “Abundance … Ruminococcus, —”) (line r239) was 43. For the same molecule, the “Abundance: —, —, —” value (line r240) was 266, the “Abundance: Other, Other, Other” value (line r241) was 48 and the “Abundance … Oscillospira, —” value (line r242) was 0. For the same molecule, the “Abundance: Lachnospiraceae, [Ruminococcus], gnavus” value (line r243) was 95, the “Abundance: Lachnospiraceae, —, —” value (line r244) was 0 and the “Abundance: Other, Other, Other” value (line r245) was 45. The “Abundance … Oscillospira, —” value (line r246) was 23, the “Abundance: —, —, —” value (line r247) was 90 and the “Abundance: Other, Other, Other” value (line r248) was 11. For the same molecule, the “Abundance: Other, Other, Other” value (line r249) was 53, the “Abundance: Other, Other, Other” value (line r250) was 57 and the “Abundance: Lachnospiraceae, Clostridium, Other” value (line r251) was 101. The “Abundance: Lachnospiraceae, —, —” value (line r252) was 23, the “Abundance: Other, Other, Other” value (line r253) was 0 and the “Abundance: Other, Other, Other” value (line r254) was 51. The “Abundance … Oscillospira, —” value (line r255) was 38, the “Abundance: Desulfovibrionaceae, —, —” value (line r256) was 42 and the “Abundance: Dehalobacteriaceae, Dehalobacterium, —” value (line r257) was 0. For the same molecule, the “Abundance … Ruminococcus, —” value (line r259) was 22, the “Abundance: Lachnospiraceae, Coprococcus, —” value (“Abundance … Coprococcus, —” for short) (line r260) was 46 and the “Abundance … Oscillospira, —” value (line r261) was 77. The “Abundance: Other, Other, Other” value (line r262) was 38, the “Abundance … Coprococcus, —” value (line r263) was 49 and the “Abundance … Oscillospira, —” value (line r264) was 0. The “Abundance: Christensenellaceae, —, —” value (line r265) was 9, the “Abundance: S24-7, —, —” value (line r266) was 8 and the “Abundance … Oscillospira, —” value (line r267) was 0. The “Abundance … Coprococcus, —” value (line r268) was 29, the “Abundance: Lachnospiraceae, Other, Other” value (line r269) was 0 and the “Abundance: Erysipelotrichaceae, Clostridium, cocleatum” value (line r271) was 34. The “Abundance: —, —, —” value (line r272) was 0, the “Abundance: Desulfovibrionaceae, Bilophila, —” value (line r273) was 17 and the “Abundance: —, —, —” value (line r274) was 0. For the same molecule, the “Abundance: Corynebacteriaceae, Corynebacterium, stationis” value (line r275) was 0, the “Abundance: Lachnospiraceae, Other, Other” value (line r276) was 34 and the “Abundance: Lachnospiraceae, Other, Other” value (line r277) was 82. For the same molecule, the “Abundance: Lachnospiraceae, —, —” value (line r278) was 10, the “Abundance: Lachnospiraceae, —, —” value (line r279) was 0 and the “Abundance: —, —, —” value (line r280) was 0. For the same molecule, the “Abundance: —, —, —” value (line r281) was 84, the “Abundance: —, —, —” value (line r282) was 0 and the “Abundance: Ruminococcaceae, —, —” value (line r283) was 0. For the same molecule, the “Abundance: —, —, —” value (line r284) was 0, the “Abundance: Lachnospiraceae, —, —” value (line r285) was 0 and the “Abundance: Dehalobacteriaceae, Dehalobacterium, —” value (line r286) was 43. The “Abundance: Other, Other, Other” value (line r287) was 68, the “Abundance: Streptococcaceae, Streptococcus, luteciae” value (line r288) was 0 and the “Abundance: —, —, —” value (line r289) was 0. For the same molecule, the “Abundance: S24-7, —, —” value (line r290) was 36, the “Abundance … Ruminococcus, —” value (line r292) was 0 and the “Abundance: Lachnospiraceae, Clostridium, Other” value (line r293) was 0. The “Abundance: —, —, —” value (line r294) was 10, the “Abundance … Oscillospira, —” value (line r295) was 22 and the “Abundance … Coprococcus, —” value (line r296) was 30. The “Abundance: —, —, —” value (line r297) was 0.
